The record followed here is publication PMC12217469 (Nature Communications, 2025).

In the assay the test system is H2B. Put plainly: Western blotting of H2B degradation, HeLa cells. The format is cell-based.

Residues, ends and D or L forms follow the SMILES beside them. *: point of attachment. Cbz = O=C(OCc1ccccc1)*

Take `O=C1CCC(N2C(=O)c3ccccc3C2=O)C(=O)N1` (centres unmarked) [Thalidomide, thalidomide]: the “effect on H2B degradation by Tz-MitoFlag (100 μM, 24 h) and TP2T (10 nM, 24 h)” value (coincubated or pretreated with Thalidomide 10 μM) was “inhibited”.
Consider `CC(C)C[C@@H](C=O)NC(=O)[C@H](CC(C)C)NC(=O)[C@H](CC(C)C)NC(=O)OCc1ccccc1` [MG132] (Cbz-Leu-Leu-Leu-aldehyde), for which, under “coincubated or pretreated with MG132 10 μM”, the “effect on H2B degradation by Tz-MitoFlag (100 μM, 24 h) and TP2T (10 nM, 24 h)” value is “no degradation of H2B”.
